For the assay, the system named is Staphylococcus aureus. Put plainly: Antibacterial activity against vancomycin-sensitive Staphylococcus aureus ATCC 49320 assessed as inhibition of bacterial growth incubated for 24 hrs. Type of assay: functional.

≈ marks a conversion by molar mass, not a printed value.

Usually MIC stands for the lowest concentration that inhibits growth of the organism.

Consider `CN[C@H](CC(C)C)C(=O)N[C@@H]1CCCCn2nncc2-c2cc3cc(c2OC)-c2cnnn2CCCC[C@@H]2NC(=O)[C@@H](C/C=C/Cc4ccccc4NC2=O)NC(=O)[C@@H]3NC(=O)[C@H](C)NC1=O`, for which the MIC was 37.5 µg/mL (≈ 40.8 µM).

Source of the values: ChEMBL document CHEMBL5104130, “Synthesis of a tricyclic hexapeptide -via two consecutive ruthenium-catalyzed macrocyclization steps- with a constrained topology to mimic vancomycin's binding properties toward D-Ala-D-Ala dipeptide” (2022).
